Reference: paper PMC6492180, “Cytome micronucleus assays with a metabolically competent human derived liver cell line (Huh6): A promising approach for routine testing of chemicals?” (Environmental and Molecular Mutagenesis, 2018)
Read-outs that look alike come from different tables or passages of the source. Marks after values point to notes of the source that are not given here.

What was measured:
Huh6 cells = conditions: for Lowest effective concentration (LOEC) in micronucleus experiments: Huh6
Protocol: All experiments were performed in duplicate.
3.8–4.0 × 10^5 cells per well were seeded into 6‐well plates with 3 mL of RPMI (4% FBS) for 12 hr, then dilutions of stock solutions of the diagnostic mutagens were added for different time periods (4, 24, and 48 hr). In each experimental series solvent controls were included. Subsequently, the cells were washed twice with 3.0 mL medium. […] Finally, the cells were washed and trypsinised. Afterwards the cells were washed twice with 8.0 mL RPMI and collected on slides by cytocentrifugation (600 rpm, 5 min). The slides were air dried, fixed, and stained with DiffQuick according to the instructions of the manufacturer. For each experimental point, two cultures were tested per dose. From each culture ≥1,000 BN cells were evaluated under 400‐fold magnification (Nikon Photophot‐FXA, Tokyo, Japan). At least 2,000 binucleated cells were analyzed per dose for the determination of the different nuclear anomalies (MN, NBuds, and NBs).
The experiments were performed as described in the previous chapter. The cells were exposed only to one dose of the different mutagens and were cultivated after the seeding in 6‐well plates which contained 4% or 10% FBS in RPMI, respectively.
Data were evaluated by generalized linear model with Poisson counts. Chi‐square tests for overdispersion were applied. […] P values ≤0.05 were considered statistically significant.
^150-60 000 cells were seeded in 6 well plates with 3 ml RPMI (4% FBS), subsequently different solutions of the test compound (dissolved in medium) were added. After treatment for different time periods, the cells was washed and processed as described in the Material and Method section. […] From each culture 1000 binoculated cells were evaluated. BN-MN – number of micronucleated cells; MN - total number of micronuclei; CBPI – cytokinesis-block proliferation index
^1The experiments were conducted essentially as described in the footnote of Table S1A-I. *p≤0.05

HepaRG = conditions: HepaRG, cited from earlier work
HepG2 = conditions: HepG2, cited from earlier work
Human lymphocytes = conditions: Human lymphocytes, cited from earlier work
[1] = ref IARC (2018); cited from earlier work
[2] = 10% FBS, 24 hr treatment, 50 µM
[3] = 10% FBS, 24 hr treatment, 100 µM
[4] = 10% FBS, 24 hr treatment, 10 µg/ml

## Cn1c(N)nc2c3cccnc3ccc21 [IQ, 2‐Amino‐3‐methyl‐3H‐imidazo[4,5‐f]quinoline]
Huh6 cells; 4% FBS
  MN effects after 24 hr (or longer) compared with 4 hr treatment (in words): more pronounced effects
Huh6 cells; 4% FBS, 4hrs, 25 µM
  BN-MN (number of micronucleated cells): 16.0 ± 2.8 ‰
  Bridges: 0.5 ± 0.7 ‰
  Buds: 17.5 ± 2.1 ‰
  CBPI: 1.9 ± 0.1
  MN (total number of micronuclei): 16.0 ± 2.8 ‰
Huh6 cells; 4% FBS, 4hrs, 50 µM
  BN-MN (number of micronucleated cells): 18.0 ± 4.2 ‰
  Bridges: 0.5 ± 0.7 ‰
  Buds: 16.5 ± 0.7 ‰
  CBPI: 1.8 ± 0.1
  MN (total number of micronuclei): 19.0 ± 4.2 ‰
Huh6 cells; 4% FBS, 4hrs, 100 µM
  BN-MN (number of micronucleated cells): 23.5 ± 5.0* ‰
  Bridges: 1.5 ± 0.7 ‰
  Buds: 21.5 ± 2.1* ‰
  CBPI: 1.9 ± 0.0
  MN (total number of micronuclei): 24.5 ± 5.0* ‰
Huh6 cells; 4% FBS, 24hrs, 25 µM
  BN-MN (number of micronucleated cells): 18.5 ± 0.7 ‰
  Bridges: 0.0 ± 0.0 ‰
  Buds: 10.5 ± 2.1 ‰
  CBPI: 1.9 ± 0.0
  MN (total number of micronuclei): 19.5 ± 0.7 ‰
Huh6 cells; 4% FBS, 24hrs, 50 µM
  BN-MN (number of micronucleated cells): 26.0 ± 1.4* ‰
  Bridges: 2.0 ± 0.0 ‰
  Buds: 18.5 ± 2.1* ‰
  CBPI: 1.7 ± 0.0
  MN (total number of micronuclei): 26.5 ± 0.7 ‰
Huh6 cells; 4% FBS, 24hrs, 100 µM
  BN-MN (number of micronucleated cells): 39.0 ± 5.7* ‰
  Bridges: 5.5 ± 0.7 ‰
  Buds: 32.5 ± 5.0* ‰
  CBPI: 2.0 ± 0.1
  MN (total number of micronuclei): 44.0 ± 1.4* ‰
Huh6 cells; 4% FBS, 48hrs, 25 µM
  BN-MN (number of micronucleated cells): 20.5 ± 2.1 ‰
  Bridges: 0.0 ± 0.0 ‰
  Buds: 22.0 ± 4.2 ‰
  CBPI: 1.9 ± 0.1
  MN (total number of micronuclei): 21.5 ± 2.1 ‰
Huh6 cells; 4% FBS, 48hrs, 50 µM
  BN-MN (number of micronucleated cells): 32.0 ± 5.7* ‰
  Bridges: 1.0 ± 0.0 ‰
  Buds: 29.5 ± 2.1* ‰
  CBPI: 1.8 ± 0.1
  MN (total number of micronuclei): 32.5 ± 6.4* ‰
Huh6 cells; 4% FBS, 48hrs, 100 µM
  BN-MN (number of micronucleated cells): 40.0 ± 2.8* ‰
  Bridges: 3.0 ± 1.4 ‰
  Buds: 35.5 ± 3.5* ‰
  CBPI: 1.7 ± 0.1
  MN (total number of micronuclei): 47.5 ± 3.5* ‰
Huh6 cells; [2]
  BN-MN (number of micronucleated cells): 47.5 ± 3.5*
  Bridges: 0 ± 0.0
  Buds: 42 ± 2.8
  CBPI: 1.9 ± 0.0
  MN (total number of micronuclei): 51.0 ± 1.4*
Huh6 cells; [3]
  BN-MN (number of micronucleated cells): 63.5 ± 6.4*
  Bridges: 0.5 ± 0.7
  Buds: 49 ± 1.4
  CBPI: 1.8 ± 0.1
  MN (total number of micronuclei): 68.5 ± 5.0*
Huh6 cells; 24 hr treatment
  MN frequencies with 10% serum compared with 4% serum (in words): stronger effects
Huh6 cells
  Lowest effective concentration (LOEC) in micronucleus experiments: 50.0 µM
HepaRG; ref Le Hegarat et al., 2010
  Lowest effective concentration (LOEC) in micronucleus experiments: Negative
  NOEC (highest no observable effect concentration tested): 500 µM
HepG2; ref Knasmuller et al., 1999
  Lowest effective concentration (LOEC) in micronucleus experiments: 300.0 (Knasmuller et al., 1999) μM
Human lymphocytes; + S9, ref Fowler et al., 2014
  Lowest effective concentration (LOEC) in micronucleus experiments: 2200.0 µM
Human lymphocytes; + S9, ref Katic et al., 2010
  Lowest effective concentration (LOEC) in micronucleus experiments: 250.0 µM
[1]
  IARC classification: Formation of guanine adducts, formation of DNA‐reactive metabolites which cause DNA‐adducts; activation: CYP1A2 and NAT; detoxification: GSTs and SULTs; IARC: Group 2A

## COS(C)(=O)=O [MMS, Methyl methanesulfonate]
Huh6 cells; 4% FBS
  MN effects after 24 hr (or longer) compared with 4 hr treatment (in words): similar
Huh6 cells; 4% FBS, 4hrs, 6 µg/ml
  BN-MN (number of micronucleated cells): 20.5 ± 3.5 ‰
  Bridges: 0.5 ± 0.7 ‰
  Buds: 20.5 ± 3.5 ‰
  CBPI: 1.9 ± 0.1
  MN (total number of micronuclei): 21.0 ± 4.2 ‰
Huh6 cells; 4% FBS, 4hrs, 10 µg/ml
  BN-MN (number of micronucleated cells): 32.5 ± 3.5* ‰
  Bridges: 3.5 ± 0.7 ‰
  Buds: 37.0 ± 4.2* ‰
  CBPI: 1.7 ± 0.1
  MN (total number of micronuclei): 39.5 ± 0.7* ‰
Huh6 cells; 4% FBS, 4hrs, 40 µg/ml
  BN-MN (number of micronucleated cells): 40.0 ± 7.1* ‰
  Bridges: 3.5 ± 2.1 ‰
  Buds: 42.0 ± 17.0* ‰
  CBPI: 1.5 ± 0.1
  MN (total number of micronuclei): 50.5 ± 7.8 ‰
Huh6 cells; 4% FBS, 24hrs, 0.4 µg/ml
  BN-MN (number of micronucleated cells): 16.5 ± 0.7 ‰
  Bridges: 0.5 ± 0.7 ‰
  Buds: 9.5 ± 0.7 ‰
  CBPI: 1.7 ± 0.0
  MN (total number of micronuclei): 16.5 ± 0.7 ‰
Huh6 cells; 4% FBS, 24hrs, 2 µg/ml
  BN-MN (number of micronucleated cells): 21.5 ± 2.1 ‰
  Bridges: 3.0 ± 0.0 ‰
  Buds: 17.5 ± 0.7 ‰
  CBPI: 1.7 ± 0.0
  MN (total number of micronuclei): 23.5 ± 2.1 ‰
Huh6 cells; 4% FBS, 24hrs, 10 µg/ml
  BN-MN (number of micronucleated cells): 29.5 ± 2.1* ‰
  Bridges: 8.0 ± 1.4 ‰
  Buds: 27.0 ± 1.4* ‰
  CBPI: 1.6 ± 0.0
  MN (total number of micronuclei): 31.0 ± 2.8* ‰
Huh6 cells; 4% FBS, 48 hr
  Change of MN rates after 48 hr treatment (in words): slight decrease
Huh6 cells; 4% FBS, 48hrs, 0.4 µg/ml
  BN-MN (number of micronucleated cells): 18.0 ± 1.4 ‰
  Bridges: 0.5 ± 0.7 ‰
  Buds: 19.0 ± 1.4 ‰
  CBPI: 1.8 ± 0.0
  MN (total number of micronuclei): 20.0 ± 1.4 ‰
Huh6 cells; 4% FBS, 48hrs, 2 µg/ml
  BN-MN (number of micronucleated cells): 20.5 ± 0.7 ‰
  Bridges: 2.5 ± 0.7 ‰
  Buds: 19.5 ± 0.7 ‰
  CBPI: 1.9 ± 0.0
  MN (total number of micronuclei): 23.5 ± 0.7 ‰
Huh6 cells; 4% FBS, 48hrs, 10 µg/ml
  BN-MN (number of micronucleated cells): 24.0 ± 2.8 ‰
  Bridges: 0.5 ± 0.7 ‰
  Buds: 27.0 ± 1.4 ‰
  CBPI: 1.7 ± 0.0
  MN (total number of micronuclei): 25.5 ± 3.5 ‰
Huh6 cells; [4]
  BN-MN (number of micronucleated cells): 27.5 ± 2.1*
  Bridges: 0.0 ± 0.0
  Buds: 20.0 ± 2.8
  CBPI: 1.8 ± 0.0
  MN (total number of micronuclei): 30.0 ± 1.4*
Huh6 cells; 24 hr treatment
  MN frequencies with 10% serum compared with 4% serum (in words): not increased
Huh6 cells
  Lowest effective concentration (LOEC) in micronucleus experiments: 10.0 µg/mL
HepaRG; ref Josse et al., 2012
  Lowest effective concentration (LOEC) in micronucleus experiments: 9.9 (Josse et al., 2012) μg/mL
  MN formation with the longer exposure time, treatment for 1 or 7 days (in words): no such effects
HepG2; ref Natarajan and Darroudi (1991)
  MN induction after 28 hr compared with 1 hr exposure (in words): less pronounced effect
HepG2; ref Valentin‐Severin et al., 2003
  Lowest effective concentration (LOEC) in micronucleus experiments: 11.0 (Valentin‐Severin et al., 2003) μg/mL
Human lymphocytes; ref Andreoli et al., 1999
  Lowest effective concentration (LOEC) in micronucleus experiments: 15.4 µg/mL
Human lymphocytes; ref Fowler et al., 2014
  Lowest effective concentration (LOEC) in micronucleus experiments: 51.0 µg/mL
[1]
  IARC classification: Methylation of DNA bases; causes gene mutations and CA; IARC: Group 2A
